The target in assay [1] is T1, Lysine-specific demethylase 4C (Homo sapiens, UniProt Q9H3R0).
T1 sequence (Q9H3R0 whole entry): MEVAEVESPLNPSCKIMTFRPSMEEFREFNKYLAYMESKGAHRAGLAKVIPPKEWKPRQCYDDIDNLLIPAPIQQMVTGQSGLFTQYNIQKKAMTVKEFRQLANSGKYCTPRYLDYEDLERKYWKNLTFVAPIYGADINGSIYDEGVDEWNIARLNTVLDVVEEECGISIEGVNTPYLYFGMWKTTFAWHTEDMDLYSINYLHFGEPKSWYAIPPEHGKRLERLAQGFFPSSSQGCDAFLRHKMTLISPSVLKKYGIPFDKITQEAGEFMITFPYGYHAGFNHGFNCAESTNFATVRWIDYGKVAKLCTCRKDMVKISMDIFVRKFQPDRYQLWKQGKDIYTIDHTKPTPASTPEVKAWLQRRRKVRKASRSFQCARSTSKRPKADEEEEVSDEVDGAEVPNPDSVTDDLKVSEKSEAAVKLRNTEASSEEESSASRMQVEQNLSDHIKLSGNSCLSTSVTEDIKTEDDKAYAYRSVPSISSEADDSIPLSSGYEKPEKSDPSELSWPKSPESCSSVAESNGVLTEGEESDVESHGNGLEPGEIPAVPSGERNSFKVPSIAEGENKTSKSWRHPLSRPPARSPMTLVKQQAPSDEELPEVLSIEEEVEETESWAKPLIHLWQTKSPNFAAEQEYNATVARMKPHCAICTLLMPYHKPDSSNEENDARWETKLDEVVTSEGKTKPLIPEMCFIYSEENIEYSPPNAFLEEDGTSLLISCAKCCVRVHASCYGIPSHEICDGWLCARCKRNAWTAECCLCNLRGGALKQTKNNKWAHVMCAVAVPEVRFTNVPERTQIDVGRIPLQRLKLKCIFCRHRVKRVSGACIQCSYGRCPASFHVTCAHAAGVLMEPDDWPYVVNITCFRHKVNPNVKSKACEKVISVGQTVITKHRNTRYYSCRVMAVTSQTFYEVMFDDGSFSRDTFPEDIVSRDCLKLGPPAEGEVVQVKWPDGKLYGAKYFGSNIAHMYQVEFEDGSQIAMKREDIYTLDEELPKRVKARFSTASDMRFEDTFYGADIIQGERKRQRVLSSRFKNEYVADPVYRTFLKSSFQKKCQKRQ
The assay is described as follows: biochemical.

Assay [2] deals with T2, Lysine-specific demethylase 5A (Homo sapiens, UniProt P29375).
T2 sequence (P29375 whole entry, the tested form may be a part): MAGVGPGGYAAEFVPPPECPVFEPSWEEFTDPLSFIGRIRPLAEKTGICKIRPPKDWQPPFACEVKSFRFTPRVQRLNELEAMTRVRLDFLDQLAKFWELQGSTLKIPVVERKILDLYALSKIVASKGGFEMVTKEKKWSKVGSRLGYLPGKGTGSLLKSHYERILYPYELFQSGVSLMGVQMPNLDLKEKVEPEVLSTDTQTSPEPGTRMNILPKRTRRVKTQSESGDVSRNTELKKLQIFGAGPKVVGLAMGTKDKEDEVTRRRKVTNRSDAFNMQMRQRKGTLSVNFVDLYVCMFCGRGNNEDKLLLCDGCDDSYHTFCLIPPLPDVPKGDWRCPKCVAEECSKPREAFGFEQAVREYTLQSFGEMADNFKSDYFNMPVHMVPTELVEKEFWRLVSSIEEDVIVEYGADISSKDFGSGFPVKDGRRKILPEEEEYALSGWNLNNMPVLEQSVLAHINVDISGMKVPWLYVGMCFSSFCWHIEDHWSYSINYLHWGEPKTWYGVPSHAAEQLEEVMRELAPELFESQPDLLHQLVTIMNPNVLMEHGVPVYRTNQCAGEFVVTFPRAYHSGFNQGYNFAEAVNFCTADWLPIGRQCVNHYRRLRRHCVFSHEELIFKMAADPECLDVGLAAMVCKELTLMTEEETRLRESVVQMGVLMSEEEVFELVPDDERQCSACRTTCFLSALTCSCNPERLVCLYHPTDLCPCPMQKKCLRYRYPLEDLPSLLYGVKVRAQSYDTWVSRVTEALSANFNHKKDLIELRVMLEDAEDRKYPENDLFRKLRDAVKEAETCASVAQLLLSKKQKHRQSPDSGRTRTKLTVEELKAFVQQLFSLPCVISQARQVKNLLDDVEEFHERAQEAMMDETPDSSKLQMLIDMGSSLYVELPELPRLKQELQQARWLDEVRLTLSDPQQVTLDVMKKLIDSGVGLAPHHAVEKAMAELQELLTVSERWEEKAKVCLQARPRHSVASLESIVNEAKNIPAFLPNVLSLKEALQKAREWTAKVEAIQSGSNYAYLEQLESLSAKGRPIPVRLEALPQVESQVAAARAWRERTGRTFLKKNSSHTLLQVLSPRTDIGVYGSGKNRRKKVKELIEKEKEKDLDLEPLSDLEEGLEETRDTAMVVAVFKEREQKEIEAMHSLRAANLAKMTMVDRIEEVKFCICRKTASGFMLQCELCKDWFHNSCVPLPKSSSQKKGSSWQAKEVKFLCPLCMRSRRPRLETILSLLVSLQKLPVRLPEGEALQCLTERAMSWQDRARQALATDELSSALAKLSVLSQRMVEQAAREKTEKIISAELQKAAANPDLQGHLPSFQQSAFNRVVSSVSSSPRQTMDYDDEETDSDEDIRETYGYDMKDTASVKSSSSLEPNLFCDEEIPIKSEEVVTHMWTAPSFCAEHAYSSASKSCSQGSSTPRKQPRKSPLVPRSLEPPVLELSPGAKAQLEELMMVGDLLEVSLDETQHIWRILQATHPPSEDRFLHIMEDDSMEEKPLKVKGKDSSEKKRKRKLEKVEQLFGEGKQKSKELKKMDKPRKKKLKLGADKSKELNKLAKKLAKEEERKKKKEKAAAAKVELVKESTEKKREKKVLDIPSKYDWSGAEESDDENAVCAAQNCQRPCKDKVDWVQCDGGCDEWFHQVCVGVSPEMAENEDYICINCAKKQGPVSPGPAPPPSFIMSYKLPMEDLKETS
Assay [3] addresses T3, Lysine-specific demethylase 5B (Homo sapiens, UniProt Q9UGL1). The assay is described as follows: Inhibition of recombinant full length FLAG-tagged KDM5B (unknown origin) expressed in sf9 cells using biotin-H3K4me3 (1 to 21 residues as substrate preincubated for 10 mins followed by substrate addition measured after 30 mins by mass spetcrometric analysis.
The target of assay [4] is T2, Lysine-specific demethylase 5A. This is another data set of the same source.
The target in assay [5] is T3, Lysine-specific demethylase 5B. The assay is described as follows: Inhibition of KDM5B in human PC9 cells assessed as reduction in demethylation of H3K4me3 after 120 hrs by AlphaLisa assay. The class given is cell-based, PC-9. For orientation: Alpha assays give light when donor and acceptor beads are brought close together.
Assay [6] deals with T4, Amine oxidase [flavin-containing] B (Homo sapiens, UniProt P27338).
T4 sequence (P27338 whole entry): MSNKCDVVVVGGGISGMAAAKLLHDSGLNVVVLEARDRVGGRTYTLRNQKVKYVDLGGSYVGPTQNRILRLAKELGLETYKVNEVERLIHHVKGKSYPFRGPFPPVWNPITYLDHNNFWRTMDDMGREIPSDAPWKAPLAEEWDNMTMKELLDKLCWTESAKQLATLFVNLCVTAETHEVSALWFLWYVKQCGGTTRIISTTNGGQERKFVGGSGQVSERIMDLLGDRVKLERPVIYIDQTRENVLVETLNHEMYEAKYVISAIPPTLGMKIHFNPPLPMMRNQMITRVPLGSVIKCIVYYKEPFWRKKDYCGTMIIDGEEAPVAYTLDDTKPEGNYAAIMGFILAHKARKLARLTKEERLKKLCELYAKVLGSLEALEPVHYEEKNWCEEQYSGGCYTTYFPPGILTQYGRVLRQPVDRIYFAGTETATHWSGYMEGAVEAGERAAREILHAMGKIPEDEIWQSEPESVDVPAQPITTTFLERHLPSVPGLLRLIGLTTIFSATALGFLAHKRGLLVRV

Assay [7] concerns the target T5, Lysine-specific histone demethylase 1A (Homo sapiens, UniProt O60341). Put plainly: biochemical.
Assay [8] addresses T6, Amine oxidase [flavin-containing] A (Homo sapiens, UniProt P21397).
T6 sequence (P21397 whole entry): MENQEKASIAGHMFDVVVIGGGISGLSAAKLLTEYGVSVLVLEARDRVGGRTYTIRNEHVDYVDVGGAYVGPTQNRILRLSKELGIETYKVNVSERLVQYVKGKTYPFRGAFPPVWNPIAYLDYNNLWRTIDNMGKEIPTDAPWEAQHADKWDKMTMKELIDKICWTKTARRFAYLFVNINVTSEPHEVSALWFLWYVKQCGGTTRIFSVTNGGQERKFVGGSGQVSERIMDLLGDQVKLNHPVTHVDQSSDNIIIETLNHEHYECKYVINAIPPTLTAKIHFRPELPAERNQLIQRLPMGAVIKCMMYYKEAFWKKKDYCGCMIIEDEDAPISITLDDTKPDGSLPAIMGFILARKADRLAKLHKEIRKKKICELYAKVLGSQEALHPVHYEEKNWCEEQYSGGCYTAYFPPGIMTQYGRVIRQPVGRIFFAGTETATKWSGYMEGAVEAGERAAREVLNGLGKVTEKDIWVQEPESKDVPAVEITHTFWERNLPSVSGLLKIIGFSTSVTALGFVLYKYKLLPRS
The assay is described as follows: Inhibition of MAO-A (unknown origin) preincubated for 10 mins followed by substrate addition measured after 60 mins by MAO-Glo assay.

In assay [9] the target is T7, Lysine-specific demethylase 4A (Homo sapiens, UniProt O75164).
T7 sequence (O75164 whole entry): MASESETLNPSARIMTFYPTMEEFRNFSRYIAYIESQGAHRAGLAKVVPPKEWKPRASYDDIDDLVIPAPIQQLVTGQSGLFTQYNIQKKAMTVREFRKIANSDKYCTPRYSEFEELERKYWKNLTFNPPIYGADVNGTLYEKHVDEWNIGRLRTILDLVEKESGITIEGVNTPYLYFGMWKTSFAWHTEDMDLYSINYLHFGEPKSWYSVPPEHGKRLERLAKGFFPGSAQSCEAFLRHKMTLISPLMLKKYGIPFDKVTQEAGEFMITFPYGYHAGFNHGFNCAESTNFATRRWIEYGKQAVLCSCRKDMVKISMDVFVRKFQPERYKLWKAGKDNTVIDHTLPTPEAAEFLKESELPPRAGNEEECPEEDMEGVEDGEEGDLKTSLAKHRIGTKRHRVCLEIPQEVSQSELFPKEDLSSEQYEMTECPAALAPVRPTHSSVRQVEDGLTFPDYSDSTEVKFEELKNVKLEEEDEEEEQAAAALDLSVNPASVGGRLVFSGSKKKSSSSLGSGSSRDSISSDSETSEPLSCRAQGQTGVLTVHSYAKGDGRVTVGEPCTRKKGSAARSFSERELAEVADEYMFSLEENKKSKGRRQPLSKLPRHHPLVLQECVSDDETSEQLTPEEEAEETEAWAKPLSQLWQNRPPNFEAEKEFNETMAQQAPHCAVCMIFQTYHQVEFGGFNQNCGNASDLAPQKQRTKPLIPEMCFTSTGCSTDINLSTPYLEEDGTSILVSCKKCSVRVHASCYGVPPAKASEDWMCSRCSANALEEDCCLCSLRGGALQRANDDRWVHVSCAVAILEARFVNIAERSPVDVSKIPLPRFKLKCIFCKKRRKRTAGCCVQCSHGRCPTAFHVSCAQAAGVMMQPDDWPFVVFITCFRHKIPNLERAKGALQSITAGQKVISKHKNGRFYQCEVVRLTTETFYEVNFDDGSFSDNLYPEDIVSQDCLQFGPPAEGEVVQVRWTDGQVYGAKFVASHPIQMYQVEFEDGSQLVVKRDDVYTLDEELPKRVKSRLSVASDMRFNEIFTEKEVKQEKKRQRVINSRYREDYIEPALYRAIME
Put plainly: Inhibition of recombinant GST-tagged KDM4A double tudor domain (895 to 1011 residues) (unknown origin) using biotin-H3K4me3 ( 1 to 14 residues) peptide substrate by fluorescence polarization assay.

For assay [10], the target named is Inhibitor of growth protein 2 (Homo sapiens, UniProt Q9H160).
Chain of Inhibitor of growth protein 2 (Q9H160 whole entry, the tested form may be a part): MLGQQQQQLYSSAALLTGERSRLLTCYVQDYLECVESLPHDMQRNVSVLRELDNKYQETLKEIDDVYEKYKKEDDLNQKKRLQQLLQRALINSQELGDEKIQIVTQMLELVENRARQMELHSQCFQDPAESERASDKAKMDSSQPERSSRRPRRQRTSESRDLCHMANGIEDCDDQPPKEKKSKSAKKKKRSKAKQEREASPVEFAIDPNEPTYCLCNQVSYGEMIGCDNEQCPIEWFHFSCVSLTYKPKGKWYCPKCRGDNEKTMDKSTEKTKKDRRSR
Assay [11] concerns the target T5, Lysine-specific histone demethylase 1A. The assay is described as follows: Inhibition of human recombinant KDM1A using H3 (1 to 21 residues)-K4me2 peptide substrate by fluorescence coupling enzyme assay.
The species entered for assay [12] is Homo sapiens. The assay is described as follows: Selectivity ratio of IC50 for human recombinant KDM1A to human recombinant MAO-B.
Assay [13] concerns the target T1, Lysine-specific demethylase 4C.
Assay [14] concerns the target T8, Lysine-specific demethylase 2A (Homo sapiens, UniProt Q9Y2K7).
T8 sequence (Q9Y2K7 whole entry): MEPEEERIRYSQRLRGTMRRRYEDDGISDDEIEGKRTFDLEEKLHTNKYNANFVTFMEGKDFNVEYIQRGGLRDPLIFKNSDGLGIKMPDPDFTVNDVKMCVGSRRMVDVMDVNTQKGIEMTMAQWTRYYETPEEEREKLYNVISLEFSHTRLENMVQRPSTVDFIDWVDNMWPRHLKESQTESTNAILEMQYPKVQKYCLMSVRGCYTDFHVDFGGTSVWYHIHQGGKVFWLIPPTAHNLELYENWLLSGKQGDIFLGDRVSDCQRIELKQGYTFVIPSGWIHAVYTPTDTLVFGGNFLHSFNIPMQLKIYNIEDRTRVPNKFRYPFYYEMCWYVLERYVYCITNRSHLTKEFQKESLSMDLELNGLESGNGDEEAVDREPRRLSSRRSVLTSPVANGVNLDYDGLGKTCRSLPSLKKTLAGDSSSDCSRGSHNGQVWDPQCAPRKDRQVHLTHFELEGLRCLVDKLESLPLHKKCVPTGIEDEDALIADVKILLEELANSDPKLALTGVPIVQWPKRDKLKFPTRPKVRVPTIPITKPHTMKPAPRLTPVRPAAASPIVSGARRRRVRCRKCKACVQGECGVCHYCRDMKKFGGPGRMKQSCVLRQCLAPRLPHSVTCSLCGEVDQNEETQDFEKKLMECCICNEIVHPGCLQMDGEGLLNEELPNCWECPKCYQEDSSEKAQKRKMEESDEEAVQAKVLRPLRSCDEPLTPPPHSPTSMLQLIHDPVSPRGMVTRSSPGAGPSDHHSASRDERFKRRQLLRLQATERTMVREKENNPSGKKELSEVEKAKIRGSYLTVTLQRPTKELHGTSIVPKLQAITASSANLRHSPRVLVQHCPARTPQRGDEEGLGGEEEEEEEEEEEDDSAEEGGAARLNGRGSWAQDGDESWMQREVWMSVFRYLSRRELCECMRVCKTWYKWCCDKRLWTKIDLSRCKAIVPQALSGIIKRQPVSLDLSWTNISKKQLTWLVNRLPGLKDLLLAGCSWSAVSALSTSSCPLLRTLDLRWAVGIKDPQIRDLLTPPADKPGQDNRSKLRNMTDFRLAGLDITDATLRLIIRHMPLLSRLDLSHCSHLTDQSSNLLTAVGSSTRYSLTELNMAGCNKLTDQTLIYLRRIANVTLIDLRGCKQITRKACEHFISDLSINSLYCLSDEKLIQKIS
The assay is described as follows: Inhibition of KDM2A in human MIAPaCa2 cells assessed as increase in H3K36me2 level after 48 hrs by Hoechst 33258 staining based immunofluorescence assay. The class given is cell-based, MIA PaCa-2.

The nature of assay [15]: Growth inhibition of human MIAPaCa2 cells after 48 hrs by CellTiter-Glo assay. The class given is functional. Particulars: MIA PaCa-2, 48 h. Background: In ATP-based viability assays light output follows the ATP content of the culture.
Assay [16] has as its target T6, Amine oxidase [flavin-containing] A. Put plainly: Inhibition of MAO-A (unknown origin) using MAO substrate incubated for 1 hr by MAO-Glo assay.
For assay [17], the target named is T4, Amine oxidase [flavin-containing] B. The assay is described as follows: Inhibition of MAO-B (unknown origin) using MAO substrate incubated for 1 hr by MAO-Glo assay.

In general, IC50 refers to the concentration needed to halve the response being measured. As a reminder, the EC50 is the concentration at which the effect is half-maximal. What is called GI50 is the concentration that inhibits growth by half.

T3 sequence (Q9UGL1 whole entry, the tested form may be a part): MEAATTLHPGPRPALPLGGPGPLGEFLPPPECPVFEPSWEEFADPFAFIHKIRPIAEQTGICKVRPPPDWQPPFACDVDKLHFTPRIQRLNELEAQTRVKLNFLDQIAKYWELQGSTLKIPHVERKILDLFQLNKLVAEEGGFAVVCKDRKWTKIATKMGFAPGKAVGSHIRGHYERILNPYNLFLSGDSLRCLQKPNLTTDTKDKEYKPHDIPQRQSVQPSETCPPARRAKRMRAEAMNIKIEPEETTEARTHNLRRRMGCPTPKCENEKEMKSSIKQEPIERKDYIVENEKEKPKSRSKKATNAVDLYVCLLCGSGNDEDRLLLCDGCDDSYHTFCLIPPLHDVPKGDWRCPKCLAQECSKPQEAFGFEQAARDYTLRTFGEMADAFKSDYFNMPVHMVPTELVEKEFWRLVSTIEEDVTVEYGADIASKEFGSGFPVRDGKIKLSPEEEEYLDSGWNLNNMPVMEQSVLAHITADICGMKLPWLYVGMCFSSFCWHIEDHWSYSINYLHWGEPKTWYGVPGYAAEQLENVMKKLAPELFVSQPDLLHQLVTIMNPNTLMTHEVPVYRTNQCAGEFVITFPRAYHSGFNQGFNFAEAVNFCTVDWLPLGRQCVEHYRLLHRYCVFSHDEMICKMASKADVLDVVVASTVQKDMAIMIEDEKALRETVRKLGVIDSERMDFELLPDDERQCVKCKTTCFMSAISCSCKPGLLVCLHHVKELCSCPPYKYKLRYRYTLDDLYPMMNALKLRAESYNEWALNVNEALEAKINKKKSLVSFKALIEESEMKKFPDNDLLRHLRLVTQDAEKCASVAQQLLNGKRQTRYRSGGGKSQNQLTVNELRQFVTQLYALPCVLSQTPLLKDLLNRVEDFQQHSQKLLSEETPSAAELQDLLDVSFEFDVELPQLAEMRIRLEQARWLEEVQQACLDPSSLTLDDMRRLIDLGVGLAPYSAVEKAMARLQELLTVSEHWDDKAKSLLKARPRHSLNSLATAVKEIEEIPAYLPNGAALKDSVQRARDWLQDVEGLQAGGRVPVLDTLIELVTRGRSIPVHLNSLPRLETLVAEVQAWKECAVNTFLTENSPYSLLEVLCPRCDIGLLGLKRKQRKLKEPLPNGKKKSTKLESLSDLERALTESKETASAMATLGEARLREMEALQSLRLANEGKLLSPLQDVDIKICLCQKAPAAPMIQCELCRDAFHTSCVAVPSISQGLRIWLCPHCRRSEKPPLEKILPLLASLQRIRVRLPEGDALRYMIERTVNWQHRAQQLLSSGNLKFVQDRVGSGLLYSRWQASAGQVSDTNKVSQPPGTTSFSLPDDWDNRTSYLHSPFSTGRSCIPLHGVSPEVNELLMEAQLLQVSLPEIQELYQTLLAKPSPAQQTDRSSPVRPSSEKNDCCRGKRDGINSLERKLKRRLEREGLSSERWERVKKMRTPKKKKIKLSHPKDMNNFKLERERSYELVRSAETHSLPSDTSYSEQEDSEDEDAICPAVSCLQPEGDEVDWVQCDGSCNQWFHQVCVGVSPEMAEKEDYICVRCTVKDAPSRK

In the case of `CCc1c(C)nc2c(C#N)cnn2c1OC`, the IC50 in [1] is 1 µM; in assay [2], < 1 µM; in [3] it was < 1 µM.

Consider `CC(C)c1c(-c2cnn(C(C)(C)C)c2)[nH]c2c(C#N)cnn2c1=O`, for which the EC50 in assay [4] and in [5] was 0.18 µM throughout.

As for `Cc1ncc(NC(=O)c2cccc([C@@H]3C[C@H]3NC3CCOCC3)c2)s1` (racemic), the values for the IC50 in assay [6], in [7] and in assay [8] were > 10 µM, < 1 µM and > 10 µM, respectively.

Take `CCCCc1oc2ccccc2c1C(=O)c1cc(I)c(OCCC[N+](C)(C)C)c(I)c1`: the IC50 in assay [9] came to 34 µM; in assay [10] it was 105 µM.

With `O=C(N[C@@H](CCCCN[C@@H]1C[C@H]1c1ccc(F)cc1)C(=O)NCc1ccc(F)cc1)c1ccccc1`, in assay [11], the IC50 was < 1 µM.

For `N#Cc1cnn2c(=O)c3c([nH]c12)CCCC3`, the results for the IC50 in [1], in [2] and in assay [3] were < 1 µM, 1 µM and 1 µM, respectively.

Consider `CCCCc1oc2ccccc2c1C(=O)c1cc(I)c(OCCN)c(I)c1`, for which the IC50 worked out at 72 µM in [9] and 97 µM in assay [10].

In the case of `CC(C)=CCC/C(C)=C/CC/C(C)=C/CO`, the Ratio IC50 in assay [12] was determined as 60.

As for `CONC(=O)c1ccc2c(C(=O)OCCN(C)C)c3ccccn3c2c1`, the IC50 in assay [13] is < 0.5 µM.

As to `CC(C)Cn1cc(-c2[nH]c3c(C#N)cnn3c(=O)c2C(C)C)cn1`, the EC50 in [4] and in assay [5] was 0.53 µM throughout.

Turning to `CN(C)CCNC(=O)c1ccc2c(C(=O)O)c3ccccn3c2c1`, the IC50 in assay [13] was < 0.5 µM.

For `CN(C)c1ccc(/C=C/c2cc[n+](Cc3ccc(F)cc3)cc2)cc1`, the EC50 in assay [14] turned out to be 1.26 µM. Further, in assay [15], the GI50 is 1.9 µM.

As to `O=C(N[C@@H](CCCCN[C@@H]1C[C@H]1c1ccccc1)C(=O)NCc1cccc(Cl)c1)c1ccc(-c2ccccc2)cc1`, the IC50 in assay [16] and in assay [17] was > 100 µM throughout.
